Results taken from US10662140B2, “Method for skin-whitening using composition containing resveratryl triglycolate” (KYUNGPOOK NATIONAL UNIVERSITY INDUSTRY-ACADEMIC COOPERATION …, priority 2016, dated 2020).
Like-named read-outs stand apart in the source and are kept apart here.

Key:
HEMs = experiment: Melanin synthesis in L-tyrosine-stimulated HEMs; type: cell-based, human; conditions: for effect on melanin synthesis: concentrations of up to 10 μM
Procedure: Human epidermal melanocytes (HEM) derived from neonatal human foreskins were purchased from Cascade Biologics (Portland, Oreg., USA). The HEMs were cultivated in Medium 254 supplemented with human melanocyte growth supplements (Cascade Biologics) and antibiotics.
The extracellular melanin levels were evaluated by measuring the absorbance of the conditioned media at a wavelength of 490 nm, while the intracellular melanin levels were evaluated after extracting melanin from the cells using 0.1 M NaOH at 60° C. for 60 minutes. The values for melanin content were normalized with respect to the protein content in each sample. The protein content was evaluated using the Bio-Rad DC assay (Bio-Rad Laboratories, Inc., Hercules, Calif., USA).

[1] = tested on: cultivated melanocytes and a reconstituted skin tissue model; conditions: cited from earlier work
[2] = tested on: Human epidermal melanocytes (HEM); conditions: HEMs, 48 hours
[3] = tested on: human epidermal melanocytes; conditions: cited from earlier work

O=C(O)CO [GA, glycolic acid]
effect on melanin synthesis (HEMs): no significant effect

CC(=O)Oc1ccc(C=Cc2cc(OC(C)=O)cc(OC(C)=O)c2)cc1 [RTA, resveratryl triacetate]
stability to oxidation ([1]; compared to resveratrol): higher stability
toxicity ([1]; compared to resveratrol): less toxic
melanin synthesis ([1]; cultivated melanocytes and reconstituted skin tissue model): effective inhibitor
cytotoxicity ([2]; concentrations above 30 μM): showed cytotoxicity
cytotoxicity ([2]; concentrations below 30 μM): barely showed cytotoxicity

OC[C@H]1O[C@@H](Oc2ccc(O)cc2)[C@H](O)[C@@H](O)[C@@H]1O [arbutin]
effect on melanin synthesis (HEMs): no effect
effect on melanin synthesis (HEMs; listed as Arbutin): no significant effect

Oc1ccc(C=Cc2cc(O)cc(O)c2)cc1 [resveratrol]
activity of MITF and TYR promoter [3]: suppresses
melanin synthesis [3]: inhibit melanin synthesis

O=C(CO)Oc1ccc(/C=C/c2cc(OC(=O)CO)cc(OC(=O)CO)c2)cc1 [resveratryl triglycolate]
melanin level (HEMs): reduced
